Columns and labels:
Hep-2 cells = experiment: Toxicity studies (XTT), Hep-2 cells; assay type: cell-based; parameters: TC50 (6d): unit not given beside the values; conditions: for TC50 (2d): Table 2, Examples 75 to 82 and 125 to 184, 2d; for TC50 (6d): Table 2, Examples 75 to 82 and 125 to 184, 6d
Description: (§1) The inner 60 wells of 96 well tissue culture plates were seeded with Hep-2 cells at 4×10^4 cells/well for compound activity and toxicity studies in 100 μl of medium and incubated at 37° C. overnight or until nearing confluency.
Cells were infected with 25 μl RSV previously titrated to give 80% cell kill. To each well 25 μM of test compound were added. The final DMSO concentration was 0.5%. […] Some 0.25 μl/ml PMS were added to stock […] solution, final conc. 25 μM PMS. Then 25 μl warmed XTT/PMS solution were added to each well and incubated for 1 hour at 37° C.

RSV = experiment: XTT assay, RSV-infected Hep-2 cells; assay type: cell-based, Respiratory Syncytial Virus (RSV); conditions: Table 2, Examples 75 to 82 and 125 to 184, Hep-2 cells infected with RSV, 6 days at 37° C.
Description: Examples 75 to 82 and 125 to 184 were tested according to the protocol described below.
as §1
Cells were infected with 25 μl RSV previously titrated to give 80% cell kill. To each well 25 μM of test compound were added. The final DMSO concentration was 0.5%. Some 200 μl of sterile distilled water were added to the outer wells of the plate and incubated at 37° C. for 6 days. Some 0.25 μl/ml PMS were added to stock […] solution, final conc. 25 μM PMS. Then 25 μl warmed XTT/PMS solution were added to each well and incubated for 1 hour at 37° C.
Maximum OD450nm reading (uninfected, untreated control cells) corresponded to 100% inhibition. Minimum OD450nm readings (infected control cells) corresponded to 0% inhibition. Log 10 concentration was plotted against OD450nm and IC50 values were calculated from either reading 50% value from graph or using regression analysis.

[1] = human respiratory syncytial virus, 144 h

Compound: Cc1cc(C(=O)NC2N=C(c3ccccc3)c3ccccc3NC2=O)oc1C (stereo not drawn) [Example 152, 4,5-Dimethyl-furan-2-carboxylic acid (2-oxo-5-phenyl-2,3-dihydro-1H-benzo[e][1,4]diazepin-3-yl)amide]
- TC50 (2d) (Hep-2 cells): > 100 µM
- TC50 (6d) (Hep-2 cells; in µM): 100
- IC50 (RSV; [1]): 0.3 µM

Compound: O=C1Nc2ccc(Cl)cc2C(c2ccccc2)=NC1NC(=O)N1CCCCC1 (stereo not drawn) [Example 153, Piperidine-1-carboxylic acid (7-chloro-2-oxo-5-phenyl-2,3-dihydro-1H-benzo[p][1,4]diazepin-3-yl)-amide]
- TC50 (2d) (Hep-2 cells): > 100 µM
- TC50 (6d) (Hep-2 cells; in µM): >100
- IC50 (RSV): 5 µM

Compound: O=C(NC1N=C(c2ccccc2)c2ccccc2NC1=O)c1cnccn1 (stereo not drawn) [Example 162]
- TC50 (2d) (Hep-2 cells): > 100 µM
- TC50 (6d) (Hep-2 cells; in µM): >100
- IC50 (RSV): 2 µM

Compound: COc1cccc(C2=NC(NC(=O)C(C)C)C(=O)Nc3ccccc32)c1 (stereo not drawn) [Example 163]
- TC50 (2d) (Hep-2 cells): >100
- TC50 (6d) (Hep-2 cells): >100
- IC50 (RSV): 5 µM

Compound: O=C(NC1N=C(c2ccccc2)c2ccc(Cl)cc2NC1=O)C1CCCCC1 (stereo not drawn) [Example 168, Cyclohexanecarboxylic acid (8-chloro-2-oxo-5-phenyl-2,3-dihydro-1H-benzo[e][1,4]diazepin-3-yl)-amide]
- TC50 (2d) (Hep-2 cells): > 100 µM
- TC50 (6d) (Hep-2 cells; in µM): >100
- IC50 (RSV; [1]): 5 µM

Compound: Cc1ccc2c(c1)NC(=O)C(NC(=O)c1cccs1)N=C2c1ccccc1 (stereo not drawn) [Example 169, Thiophene-2-carboxylic acid (8-methyl-2-oxo-5-phenyl-2,3-dihydro-1H-benzo[e][1,4]diazepin-3-yl)-amide]
- TC50 (2d) (Hep-2 cells): 50 µM
- TC50 (6d) (Hep-2 cells; in µM): 30
- IC50 (RSV; [1]): 5 µM

Compound: O=C(Nc1cccs1)NC1N=C(c2ccccc2)c2ccccc2NC1=O (stereo not drawn) [Example 170, 1-(2-Oxo-5-phenyl-2,3-dihydro-1H-benzo[e][1,4]diazepin-3-yl)-3-thiophene-2-yl-urea]
- TC50 (6d) (Hep-2 cells; in µM): >50
- IC50 (RSV; [1]): 3.4 µM

Compound: O=C(Nc1ccsc1)NC1N=C(c2ccccc2)c2ccccc2NC1=O (stereo not drawn) [Example 171, 1-(2-Oxo-5-phenyl-2,3-dihydro-1H-benzo[e][1,4]diazepin-3-yl)-3-thiophene-3-yl-urea]
- TC50 (6d) (Hep-2 cells; in µM): >50
- IC50 (RSV; [1]): 4.8 µM

Compound: O=C(NC1N=C(c2ccccc2)c2ccccc2NC1=O)c1ccccn1 (stereo not drawn) [Example 172, Pyridine-2-carboxylic-acid (2-oxo-5-phenyl-2,3-dihydro-1H-benzo[e][1,4]diazepin-3-yl)-amide]
- TC50 (6d) (Hep-2 cells; in µM): 137.8
- IC50 (RSV; [1]): 6.4 µM

Compound: O=C(NC1N=C(c2ccccc2)c2ccccc2NC1=O)c1cn[nH]c1 (stereo not drawn) [Example 173, 1H-Pyrazole-4-carboxylic acid (2-oxo-5-phenyl-2,3-dihydro-1H-benzo[e][1,4]diazepin-3-yl)-amide]
- TC50 (6d) (Hep-2 cells; in µM): 95
- IC50 (RSV; [1]): 8.3 µM

Compound: CN(C)c1ccc(C(=O)NC2N=C(c3ccccc3)c3ccccc3NC2=O)cn1 (stereo not drawn) [Example 174, 6-Dimethylamino-N-(2-oxo-5-phenyl-2,3-dihydro-1H-benzo[e][1,4]diazepin-3-yl)-nicotinamide]
- TC50 (6d) (Hep-2 cells; in µM): 60
- IC50 (RSV; [1]): 6.9 µM

Compound: CCOc1ccc2ccccc2c1C(=O)NC1N=C(c2ccccc2)c2ccccc2NC1=O (stereo not drawn) [Example 175, 2-Ethoxy-naphthalene-1-carboxylic acid (2-oxo-5-phenyl-2,3-dihydro-1H-benzo[e][1,4]diazepin-3-yl)-amide]
- TC50 (6d) (Hep-2 cells; in µM): >50
- IC50 (RSV; [1]): 8.2 µM

Compound: O=C(NC1N=C(c2ccccc2)c2ccccc2NC1=O)c1cccc2c1C(=O)c1ccccc1-2 (stereo not drawn) [Example 176, 9-Oxo-9H-fluorene-1-carboxylic acid (2-oxo-5-phenyl-2,3-dihydro-1H-benzo[e][1,4]diazepin-3-yl)-amide]
- TC50 (6d) (Hep-2 cells; in µM): 99
- IC50 (RSV; [1]): 4.3 µM

Compound: O=C1Nc2ccccc2C(c2ccccc2)=NC1NC(=O)n1c(=O)[nH]c2ccccc21 (stereo not drawn) [Example 177, 2-Oxo-2,3-dihydro-benzoimidazole-1-carboxylic acid (2-oxo-5-phenyl-2,3-dihydro-1H-benzo[e][1,4]diazepin-3-yl)-amide]
- TC50 (6d) (Hep-2 cells; in µM): >50
- IC50 (RSV; [1]): 4.3 µM

Compound: CC(C)(C)OC(=O)NC1N=C(c2ccccc2)c2ccccc2NC1=O (stereo not drawn) [Example 178, (2-Oxo-5-phenyl-2,3-dihydro-1H-benzo[e][1,4]diazepin-3-yl)carbamic acid tert-butyl ester]
- TC50 (6d) (Hep-2 cells; in µM): >50
- IC50 (RSV; [1]): 4.3 µM

Compound: O=C(N[C@H]1N=C(c2ccccc2)c2ccccc2NC1=O)c1cc(Br)c(Br)o1 [Example 179, (S)-4,5-Dibromo-furan-2-carboxylic acid (2-oxo-5-phenyl-2,3-dihydro-1H-benzo[e][1,4]diazepin-3-yl)-amide]
- TC50 (6d) (Hep-2 cells; in µM): >50
- IC50 (RSV; [1]): 3.9 µM

Compound: O=C(N[C@H]1N=C(c2ccccc2)c2ccccc2NC1=O)c1cc2ccccc2o1 [Example 180, (S)-Benzofuran-2-carboxylic acid (2-oxo-5-phenyl-2,3-dihydro-1H-benzo[e][1,4]diazepin-3-yl)-amide]
- TC50 (6d) (Hep-2 cells; in µM): 37.1
- IC50 (RSV; [1]): 2.6 µM

Compound: COC(=O)NC1N=C(c2ccccc2)c2ccccc2NC1=O (stereo not drawn) [Example 181, (2-Oxo-5-phenyl-2,3-dihydro-1H-benzo[e][1,4]diazepin-3-yl)-carbamic acid methyl ester]
- TC50 (6d) (Hep-2 cells; in µM): >50
- IC50 (RSV; [1]): 9.6 µM

Compound: CCOC(=O)NC1N=C(c2ccccc2)c2ccccc2NC1=O (stereo not drawn) [Example 182, (2-Oxo-5-phenyl-2,3-dihydro-1H-benzo[e][1,4]diazepin-3-yl)-carbamic acid ethyl ester]
- TC50 (6d) (Hep-2 cells; in µM): >50
- IC50 (RSV; [1]): 10 µM

Compound: CC(C)COC(=O)NC1N=C(c2ccccc2)c2ccccc2NC1=O (stereo not drawn) [Example 183, (2-Oxo-5-phenyl-2,3-dihydro-1H-benzo[e][1,4]diazepin-3-yl)-carbamic acid isobutyl ester]
- TC50 (6d) (Hep-2 cells; in µM): >50
- IC50 (RSV; [1]): 9.88 µM

Compound: O=C(NC1N=C(c2ccccc2)c2ccccc2NC1=O)C(=O)c1cccs1 (stereo not drawn) [Example 184, 2-Oxo-N-(2-oxo-5-phenyl-2,3-dihydro-1H-benzo[e][1,4]diazepin-3-yl)-2-thiophene-2-yl-acetamide]
- TC50 (2d) (Hep-2 cells): > 50 µM
- IC50 (RSV; [1]): 9.5 µM

Compound: Cyclohexanecarboxylic acid [5-(3-chloro-phenyl)-2-oxo-5-phenyl-2,3-dihydro-1H-benzo[e][1,4]diazepin-3-yl]-amide [Example 158]
- TC50 (2d) (Hep-2 cells): 100 µM
- TC50 (6d) (Hep-2 cells; in µM): >100
- IC50 (RSV): 2 µM

Compound: Cyclohexanecarboxylic acid [5-(3-methoxy-phenyl)-2-oxo-5-phenyl-2,3-dihydro-1H-benzo[e][1,4]diazepin-3-yl]-amide [Example 165]
- TC50 (2d) (Hep-2 cells): > 100 µM
- TC50 (6d) (Hep-2 cells; in µM): >100
- IC50 (RSV): 2 µM

Compound: Furan-2-carboxylic acid [5-(3-chloro-phenyl)-2-oxo-5-phenyl-2,3-dihydro-1H-benzo[e][1,4]diazepin-3-yl]-amide [Example 156]
- TC50 (2d) (Hep-2 cells): 100 µM
- TC50 (6d) (Hep-2 cells; in µM): 100
- IC50 (RSV): 1.5 µM

Compound: N-[5-(3-Chloro-phenyl)-2-oxo-5-phenyl-2,3-dihydro-1H-benzo[e][1,4]diazepin-3-yl)acetamide [Example 154]
- TC50 (2d) (Hep-2 cells): > 100 µM
- TC50 (6d) (Hep-2 cells; in µM): >100
- IC50 (RSV): 3 µM

Compound: N-[5-(3-Chloro-phenyl)-2-oxo-5-phenyl-2,3-dihydro-1H-benzo[e][1,4]diazepin-3-yl]-isobutyramide [Example 155]
- TC50 (2d) (Hep-2 cells): > 100 µM
- TC50 (6d) (Hep-2 cells; in µM): >100
- IC50 (RSV): 6 µM

Source: patent US8119630B2 (Arrow Therapeutics Limited, priority 2002, dated 2012)
